In patent US20240238195A1, “METHODS AND COMPOSITIONS FOR INHIBITING A NOXIOUS INSULT” (priority 2018, published 2024):
“Also recorded” adds a separate entry of the source.

Legend:
ferrets = conditions: 390 mg zinc/kg of body weight per day as zinc oxide in the diet for 3-13 days; cited from earlier work
rats [1] = conditions: 191 mg zinc/kg/day as zinc acetate in drinking water for 3 months; cited from earlier work
rats [2] = conditions: cited from earlier work
mice = conditions: cited from earlier work
pAKT [3] = assay: Phosphorylation of AKT in ACHN cells (Western blot); format: cell-based, human; conditions: ZnCl2 for 4 hours
Excerpt: (§1) Zn stimulated HIF1α in ACHN cells.

HIF-2α [4] = assay: HIF-2α protein expression in ACHN cells (Western blot); format: cell-based, human; conditions: 50 μM ZnCl2, Western blot, 4 hours
Excerpt: as §1

[5] = test system: sheep left ventricle myocardium; assay: Myocardial ischaemia-reperfusion in sheep (Evan's blue / TTC staining); format: in vivo
HIF-3α [6] = assay: HIF-3α protein expression in HK-2 cells (Western blot); format: cell-based, human; conditions: 50 μM ZnCl2, Western blot
Excerpt: (§2) Zn stimulated HIF1α in HK-2 cells.

sheep kidneys = assay: Renal ischaemia-reperfusion injury in sheep (unilateral nephrectomy, 60 min renal ischaemia); format: in vivo; conditions: for ischaemic burden (area under curve, serum creatinine and serum urea): 0.5 mg/kg dosed at 24 hours and 4 hours pre-ischaemia, compared to controls and single 24 hr or 4 hr dosing; for inhibition of ischaemia-reperfusion injury, as measured by serum creatinine and urea levels / adverse effects of ischaemia-reperfusion in sheep kidneys (trend towards higher serum creatinine and urea levels): compared to controls
Protocol: (§3) Following the 4 hour injection, day 0 blood samples were taken.
Controls (n=4) received a unilateral nephrectomy and were administered saline at 24 hours and 4 hours prior to surgery.
Another group of sheep (n=1) received the Flavonoid based antioxidant (3′,4′ dihydroxyflavonol) at 6.6 mg/kg of body weight 1 hours prior to surgery.
Sheep were anaesthetised prior to surgery with intravenous sodium thiopentone (15 mg/kg) for endotracheal intubation (cuffed tube size 10). Maintenance of anaesthesia was carried out by means of oxygen/air/isoflurane (1.5-2.0%). Fractional inspired oxygen was altered to maintain PaO2 at approximately 100 mmHg, and ventilation was controlled to maintain PaCO2 at approximately 40 mmHg.
Following general anaesthesia, the right kidney was removed. A flow probe (4 mm) was implanted into the left kidney and the renal hilum (arteries and veins) supplying blood to the kidney were clamped using a vascular clamp for 60 minutes. […] General anaesthesia was then reversed and the sheep were allowed to recover. Renal blood flow was measured, blood samples were taken daily from the sheep over a 1-week period and the level of urea and creatinine was determined. Blood samples were collected into lithium heparin tubes (Microtainer, Becton-Dickinson). Blood samples were centrifuged and aliquots stored at −20° C. till analysis for creatinine and urea by the Clinical Trials Department, Austin Pathology, Heidelberg, Australia. Creatinine and urea in the blood serum samples were measured on a fully automated Roche Cobas 8000 c702 analyser. The kinetic colorimetric assay for creatinine determination is based on the Jaffé method. The kinetic colorimetric assay for urea is based on hydrolyzation of Urea to ammonium catalysed by urease followed by reaction of ammonium with 2-oxoglutarate in the presence of glutamate dehydrogenase and the coenzyme NADH. The rate of decrease in the NADH concentration is directly proportional to the urea concentration in the specimen and is measured photometrically.
As 0.5 mg/kg had been established as an effective dose to inhibit renal ischemia-reperfusion injury, the dosing experiments above were repeated to investigate the effect of multiple dosing. Sheep were subjected to uninephrectomy and 60 min of renal ischaemia followed by reperfusion. Serum creatinine and serum urea levels were measured before Zn pre-treatment (baseline), before ischaemia (Day 0) and for 7 days after reperfusion. […] Data are expressed as mean±SEM values (n=4, except 24 hr only group, n=1).

HIF-1α [7] = assay: HIF-1α protein expression in HK-2 cells (Western blot); format: cell-based, human; conditions: 50 μM ZnCl2, Western blot, at 4 hours following exposure, vs controls
Excerpt: as §2

HIF-1α [8] = assay: HIF-1α protein expression in ACHN cells (Western blot); format: cell-based, human; conditions: 50 μM ZnCl2, Western blot, at 4 hours following exposure, vs controls
Excerpt: as §1

pAKT [9] = assay: Phosphorylation of AKT in HK-2 cells (Western blot); format: cell-based, human; conditions: ZnCl2 for 4 hours
Excerpt: as §2

HIF-3α [10] = assay: HIF-3α protein expression in ACHN cells (Western blot); format: cell-based, human; conditions: 50 μM ZnCl2, Western blot
Excerpt: as §1

HIF-2α [11] = assay: HIF-2α protein expression in HK-2 cells (Western blot); format: cell-based, human; conditions: 50 μM ZnCl2, Western blot, 4 hours
Excerpt: as §2

[12] = Tolerability of intravenous ZnCl2 in sheep; format: in vivo; conditions: 0.1 to 2 mg/kg of body weight i.v. at 24 hours and 4 hours prior to surgery; preliminary results
Protocol: as §3

HIF-1α [13] = assay: HIF-1α protein expression in ZnCl2-perfused human kidney tissue (Western Blot)
Protocol: The blood supply to the excised tissue was provided by the renal artery into which the ZnCl2 solution was administered. In an initial study a 25% increase in HIF-1α expression in normal human kidney perfused with Zn compared to saline perfused tissue was observed.

humans = conditions: cited from earlier work
[14] = 0.1 mg/kg of body weight i.v. at 24 hours and 4 hours prior to 60 min ischaemia
[15] = 0.5 mg/kg of body weight i.v. at 24 hours and 4 hours prior to 60 min ischaemia

In the case of `[O]=[Zn]` [zinc oxide], the “lethality (ferrets dead of ferrets dosed)” value (ferrets) is listed as 3 of 3.
In the case of `CC(=O)[O-].CC(=O)[O-].[Zn+2]` [zinc acetate], the mortality (rats [1]) is given as “Mortality has also been observed”, the “relative lethality (LD50 ranking)” value (rats [2]) is given as “most lethal compound tested” and the “relative lethality (LD50 ranking)” value (mice) is given as “most lethal compound”.
In the case of `[Cl-].[Cl-].[Zn+2]` [ZnCl2, zinc chloride], the “phosphorylation of AKT” value (pAKT [3]) is reported as “stimulated phosphorylation”, the HIF-2α protein expression (HIF-2α [4]) is reported as “increase” and the HIF-2α protein expression (HIF-2α [4]; listed as zinc) is reported as “stimulated”. For the same molecule, the “infarct in the area of myocardium at risk” value ([5]; dual doses of 0.5 mg/kg ZnCl2 at 24 hours and 4 hours prior to 1 hour ischemia and 3 hour reperfusion) was “no histological signs of an infarct”, the “white (infarcted) areas after TTC staining of left ventricle rings” value ([5]; dual doses of 0.5 mg/kg ZnCl2 at 24 hours and 4 hours prior to myocardial ischaemia, compared to untreated sheep, 0.5 mg/kg) was “very little white staining; also recorded: Absence of white areas” and the HIF-3α protein expression (HIF-3α [6]) was “not”. For the same molecule, the “serum creatinine levels when compared to controls” value (sheep kidneys; [14]) was “marked reduction”, the “serum urea levels when compared to controls” value (sheep kidneys; [14]) was “marked reduction” and the “ischaemic burden (area under curve, serum creatinine and serum urea)” value (sheep kidneys) was “significantly (p<0.05) reduced”. The “ischaemic burden (area under curve, serum creatinine and serum urea)” value (sheep kidneys; listed as zinc) was “reduced significantly”, the “serum creatinine levels when compared to controls” value (sheep kidneys; [15]) was “marked reduction” and the “serum urea levels when compared to controls” value (sheep kidneys; [15]) was “marked reduction”. For the same molecule, the “reduction of ischaemic burden (AUC values for serum creatinine and serum urea)” value (sheep kidneys; 0.5 mg/kg zinc, compared to control animals) was ~70%, the “inhibition of ischaemia-reperfusion injury, as measured by serum creatinine and urea levels” value (shortened to “inhibition”) (sheep kidneys; 1.0 mg/kg of body weight) was “failed to inhibit” and the “inhibition” value (sheep kidneys; 2.5 mg/kg of body weight) was “failed to inhibit”. For the same molecule, the “adverse effects of ischaemia-reperfusion in sheep kidneys (trend towards higher serum creatinine and urea levels)” value (from here on “adverse effects of ischaemia-reperfusion”) (sheep kidneys; 2.5 mg/kg of body weight, listed as ZnCl) was “appeared to worsen”, the “adverse effects of ischaemia-reperfusion” value (sheep kidneys; 2.5 mg/kg of body weight, listed as zinc) was “worsened renal function” and the “inhibition” value (sheep kidneys; 10.0 mg/kg of body weight) was “failed to inhibit”. The “adverse effects of ischaemia-reperfusion” value (sheep kidneys; 10.0 mg/kg of body weight, listed as ZnCl) was “appeared to worsen”, the “adverse effects of ischaemia-reperfusion” value (sheep kidneys; 10.0 mg/kg of body weight, listed as zinc) was “worsened renal function” and the “renal function following ischaemia-reperfusion injury, as determined by serum creatinine and serum urea levels” value (sheep kidneys; greater than or equal to 1 mg/kg of body weight, intravascular) was “did not improve renal function”. For the same molecule, the “creatinine rise over time” value (sheep kidneys; two doses of 0.5 mg/kg at 24 and 4 hr prior to ischaemia, compared to single dose at either 24 hr or 4 hr, p<0.05, 0.5 mg/kg) was “significantly (p<0.05) reduced”, the HIF-1α protein expression (HIF-1α [7]) was “increase” and the HIF-1α protein expression (HIF-1α [7]; listed as Zinc chloride) was “enhanced”. For the same molecule, the HIF-1α protein expression (HIF-1α [7]; listed as Zn) was “stimulated”, the HIF-1α protein expression (HIF-1α [7]; listed as zinc) was “stimulates” and the HIF-1α protein expression (HIF-1α [8]) was “increase”. The HIF-1α protein expression (HIF-1α [8]; listed as Zinc chloride) was “enhanced”, the HIF-1α protein expression (HIF-1α [8]; listed as Zn) was “stimulated” and the HIF-1α protein expression (HIF-1α [8]; listed as zinc) was “stimulates”. For the same molecule, the “phosphorylation of AKT” value (pAKT [9]) was “stimulated phosphorylation”, the HIF-3α protein expression (HIF-3α [10]) was “not” and the HIF-2α protein expression (HIF-2α [11]) was “increase”. For the same molecule, the HIF-2α protein expression (HIF-2α [11]; listed as zinc) was “stimulated”, the “tolerability / adverse effects” value [12] was “without any adverse effects” and the “increase in HIF-1α expression” value (HIF-1α [13]; 50 μM ZnCl2 perfused via segmental renal artery, compared to saline perfused tissue, initial study) was 25%. The “HIF-1α protein expression in human kidney tissue” value (HIF-1α [13]; zinc chloride preconditioning (50 μM perfusion), Western Blot) was “enhanced”.
In the case of zinc sulfate, the “outcome of zinc overdose” value (humans; oral ingestion of zinc sulfate in large amounts (≥30,000 mg)) is given as “can result in death”.
With `O=c1c(O)c(-c2ccc(O)c(O)c2)oc2ccccc12` [antioxidant, 3′,4′ dihydroxyflavonol, reference compound] the “decrease of ischaemic burden (AUC values for serum creatinine and serum urea)” value (sheep kidneys; antioxidant 6.6 mg/kg of body weight 1 hours prior to surgery (n=1)) was 50%.
In the case of zinc gluconate, the toxic effects (humans; about 2,000-4,000 mg/day of zinc gluconate) is given as “anemia (consistent with zinc-induced copper deficiency), severe nephrosis, nausea, vomiting, dehydration, electrolyte imbalances, dizziness, lethargy and incoordination, epigastric pain and abdominal pain”.
